Test results from PMC5218480 (PLoS ONE, 2017).

System: MV-4-11 cells
Assay: Gene expression microarray analysis (Affymetrix PrimeView) and GSEA
Assay type: cell-based, human
Parameters: RFU PODN (11730768_x_at) / Fold change /veh PODN (11730768_x_at) / RFU LINC00158 (11744669_a_at) / Fold change /veh LINC00158 (11744669_a_at) / RFU DUSP10 (11751237_a_at) / Fold change /veh DUSP10 (11751237_a_at) / RFU ID3 (11757404_x_at) / Fold change /veh ID3 (11757404_x_at) / RFU PLEKHG5 (11737974_s_at) / Fold change /veh PLEKHG5 (11737974_s_at) / RFU LRRC4B (11730491_at) / Fold change /veh LRRC4B (11730491_at) / RFU GIMAP4 (11747438_a_at) / Fold change /veh GIMAP4 (11747438_a_at) / RFU KRT8 (11758183_x_at) / Fold change /veh KRT8 (11758183_x_at) / RFU CNN1 (11734310_a_at) / Fold change /veh CNN1 (11734310_a_at) / RFU VPS37D (11726825_at) / Fold change /veh VPS37D (11726825_at) / RFU C10orf10 (11716522_x_at) / Fold change /veh C10orf10 (11716522_x_at) / RFU KIR2DL2 /// KIR2DL4 /// KIR2DL5A /// KIR2DL5B /// KIR2DS1 /// KIR2DS2 /// KIR2DS3 /// KIR2DS4 /// KIR3DL3 /// KIR3DL3 /// KIR3DS1 (11738374_at) / Fold change /veh KIR2DL2 /// KIR2DL4 /// KIR2DL5A /// KIR2DL5B /// KIR2DS1 /// KIR2DS2 /// KIR2DS3 /// KIR2DS4 /// KIR3DL3 /// KIR3DL3 /// KIR3DS1 (11738374_at) / RFU C1QL1 (11718748_at) / Fold change /veh C1QL1 (11718748_at) / RFU TMPRSS4 (11747572_a_at) / Fold change /veh TMPRSS4 (11747572_a_at) / RFU HAMP (11756126_x_at) / Fold change /veh HAMP (11756126_x_at) / RFU RNFT2 (11725882_a_at) / Fold change /veh RNFT2 (11725882_a_at) / RFU NR4A2 (11747474_a_at) / Fold change /veh NR4A2 (11747474_a_at) / RFU ABCC12 (11746883_a_at) / Fold change /veh ABCC12 (11746883_a_at) / RFU TMEM136 (11760407_x_at) / Fold change /veh TMEM136 (11760407_x_at) / RFU CLDN22 /// WWC2 (11732394_at) / Fold change /veh CLDN22 /// WWC2 (11732394_at) / RFU HLA-DPB1 (11760878_x_at) / Fold change /veh HLA-DPB1 (11760878_x_at) / RFU SPINT1 (11716480_a_at) / Fold change /veh SPINT1 (11716480_a_at) / RFU GAP43 (11754022_s_at) / Fold change /veh GAP43 (11754022_s_at) / RFU A4GNT (11735810_at) / Fold change /veh A4GNT (11735810_at) / RFU PRB3 (11715151_x_at) / Fold change /veh PRB3 (11715151_x_at) / RFU TUBB4B (11761932_at) / Fold change /veh TUBB4B (11761932_at) / RFU CAPN14 (11732068_a_at) / Fold change /veh CAPN14 (11732068_a_at) / RFU TMCC2 (11721928_a_at) / Fold change /veh TMCC2 (11721928_a_at) / RFU IRGQ (11745062_a_at) / Fold change /veh IRGQ (11745062_a_at) / RFU FAM174B (11720279_a_at) / Fold change /veh FAM174B (11720279_a_at) / RFU TMPRSS4 (11748680_a_at) / Fold change /veh TMPRSS4 (11748680_a_at) / RFU FAM212B (11763350_a_at) / Fold change /veh FAM212B (11763350_a_at) / RFU PLEKHG5 (11743358_a_at) / Fold change /veh PLEKHG5 (11743358_a_at) / RFU ZSCAN30 (11745921_a_at) / Fold change /veh ZSCAN30 (11745921_a_at) / RFU CMKLR1 (11741424_a_at) / Fold change /veh CMKLR1 (11741424_a_at) / RFU LOC101060620 /// MAPK8IP1 (11723275_at) / Fold change /veh LOC101060620 /// MAPK8IP1 (11723275_at) / RFU SPTSSB (11747773_x_at) / Fold change /veh SPTSSB (11747773_x_at) / RFU PRSS12 (11739890_at) / Fold change /veh PRSS12 (11739890_at) / RFU BIN1 (11741810_x_at) / Fold change /veh BIN1 (11741810_x_at) / RFU WNT11 (11732464_a_at) / Fold change /veh WNT11 (11732464_a_at) / RFU C10orf10 (11716521_a_at) / Fold change /veh C10orf10 (11716521_a_at) / RFU C5orf56 (11738089_at) / Fold change /veh C5orf56 (11738089_at) / RFU CYB561 (11721691_x_at) / Fold change /veh CYB561 (11721691_x_at) / RFU ANKRD19P (11752326_a_at) / Fold change /veh ANKRD19P (11752326_a_at) / RFU OR2T12 /// OR2T33 /// OR2T8 (11738714_s_at) / Fold change /veh OR2T12 /// OR2T33 /// OR2T8 (11738714_s_at) / RFU VCAN (11748164_a_at) / Fold change /veh VCAN (11748164_a_at) / RFU JSRP1 (11732532_at) / Fold change /veh JSRP1 (11732532_at) / RFU KRTAP10-11 (11738290_x_at) / Fold change /veh KRTAP10-11 (11738290_x_at) / RFU MYO3A (11730013_a_at) / Fold change /veh MYO3A (11730013_a_at) / RFU EBF3 (11725865_a_at) / Fold change /veh EBF3 (11725865_a_at) / RFU CAMK2N1 (11719241_x_at) / Fold change /veh CAMK2N1 (11719241_x_at) / RFU C5orf56 (11738088_a_at) / Fold change /veh C5orf56 (11738088_a_at) / RFU OLFML3 (11715873_a_at) / Fold change /veh OLFML3 (11715873_a_at) / RFU LOC100653217 /// NTM (11731650_a_at) / Fold change /veh LOC100653217 /// NTM (11731650_a_at) / RFU MAPK11 (11762145_a_at) / Fold change /veh MAPK11 (11762145_a_at) / RFU FIZ1 (11724087_x_at) / Fold change /veh FIZ1 (11724087_x_at) / RFU OASL (11726364_x_at) / Fold change /veh OASL (11726364_x_at) / RFU SOX15 (11748057_x_at) / Fold change /veh SOX15 (11748057_x_at) / RFU CD79A (11719716_a_at) / Fold change /veh CD79A (11719716_a_at) / RFU HIST1H1D (11736915_at) / Fold change /veh HIST1H1D (11736915_at) / RFU CASKIN2 (11723855_a_at) / Fold change /veh CASKIN2 (11723855_a_at) / RFU LOC730098 (11760151_x_at) / Fold change /veh LOC730098 (11760151_x_at) / RFU OR4N2 (11742367_at) / Fold change /veh OR4N2 (11742367_at) / RFU PRRT2 (11749266_a_at) / Fold change /veh PRRT2 (11749266_a_at) / RFU SNX32 (11753110_a_at) / Fold change /veh SNX32 (11753110_a_at) / RFU CDHR5 (11726645_a_at) / Fold change /veh CDHR5 (11726645_a_at) / RFU RCAN1 (11760418_a_at) / Fold change /veh RCAN1 (11760418_a_at) / RFU FAM167A (11723789_a_at) / Fold change /veh FAM167A (11723789_a_at) / RFU FAM26E (11764081_at) / Fold change /veh FAM26E (11764081_at) / RFU ISYNA1 (11749810_s_at) / Fold change /veh ISYNA1 (11749810_s_at) / RFU ACY1 (11761880_at) / Fold change /veh ACY1 (11761880_at) / RFU 11764098_at / Fold change /veh 11764098_at / RFU SAMD14 (11745864_x_at) / Fold change /veh SAMD14 (11745864_x_at) / RFU NPB (11741838_a_at) / Fold change /veh NPB (11741838_a_at) / RFU TMPRSS6 (11731388_a_at) / Fold change /veh TMPRSS6 (11731388_a_at) / RFU KRTAP10-2 (11738614_at) / Fold change /veh KRTAP10-2 (11738614_at) / RFU ARHGAP8 /// PRR5-ARHGAP8 (11727945_x_at) / Fold change /veh ARHGAP8 /// PRR5-ARHGAP8 (11727945_x_at) / RFU KRTAP5-7 /// NADSYN1 (11734609_at) / Fold change /veh KRTAP5-7 /// NADSYN1 (11734609_at) / RFU RASL12 (11751679_a_at) / Fold change /veh RASL12 (11751679_a_at) / RFU CDKN2B (11736163_a_at) / Fold change /veh CDKN2B (11736163_a_at) / RFU PRF1 (11729649_at) / Fold change /veh PRF1 (11729649_at) / RFU, ZNF638 /// ZNF638-IT1 / Fold change vs veh, ZNF638 /// ZNF638-IT1 / RFU, PANK3 / Fold change vs veh, PANK3 / RFU, SH3YL1 / Fold change vs veh, SH3YL1 / RFU, ZEB2 / Fold change vs veh, ZEB2 / RFU, NRIP1 / Fold change vs veh, NRIP1 / RFU, PTTG1IP / Fold change vs veh, PTTG1IP / RFU, CAPN2 / Fold change vs veh, CAPN2 / RFU, MED14 / Fold change vs veh, MED14 / RFU, SNORA58 / Fold change vs veh, SNORA58 / RFU, C1orf63 / Fold change vs veh, C1orf63 / RFU, LRRFIP1 / Fold change vs veh, LRRFIP1 / RFU, NDUFAF7 / Fold change vs veh, NDUFAF7 / RFU, SLC12A2 / Fold change vs veh, SLC12A2 / RFU, IBTK / Fold change vs veh, IBTK / RFU, ESF1 / Fold change vs veh, ESF1 / Fold change vs veh, TMEM50B / RFU, TAOK1 / Fold change vs veh, TAOK1 / RFU, ACBD3 / Fold change vs veh, ACBD3 / RFU, TMA16 / Fold change vs veh, TMA16 / RFU, RWDD3 / Fold change vs veh, RWDD3 / RFU, BCAT1 / Fold change vs veh, BCAT1 / RFU, EDEM3 / Fold change vs veh, EDEM3 / RFU, TMEM33 / Fold change vs veh, TMEM33 / RFU, WDR75 / Fold change vs veh, WDR75 / RFU, AHCTF1 / Fold change vs veh, AHCTF1 / RFU, TFRC / Fold change vs veh, TFRC / RFU, ZDHHC17 / Fold change vs veh, ZDHHC17 / RFU, NOM1 / Fold change vs veh, NOM1 / RFU, ARL8B / Fold change vs veh, ARL8B / RFU, ZBTB11 / Fold change vs veh, ZBTB11 / RFU, TAMM41 / Fold change vs veh, TAMM41 / RFU, KIAA1704 /// LOC100996395 / Fold change vs veh, KIAA1704 /// LOC100996395 / RFU, ING1 / Fold change vs veh, ING1 / RFU, TRMT61B / Fold change vs veh, TRMT61B / RFU, FUBP3 / Fold change vs veh, FUBP3 / RFU, TP53 / Fold change vs veh, TP53 / RFU, TNKS2 / Fold change vs veh, TNKS2 / RFU, ZFP14 / Fold change vs veh, ZFP14 / RFU, ACTR2 / Fold change vs veh, ACTR2 / RFU, PPP3R1 / Fold change vs veh, PPP3R1 / RFU, PIK3R1 / Fold change vs veh, PIK3R1 / RFU, HNRNPA1 / Fold change vs veh, HNRNPA1 / RFU, RNF170 / Fold change vs veh, RNF170 / RFU, ZNF28 / Fold change vs veh, ZNF28 / RFU, RNGTT / Fold change vs veh, RNGTT / RFU, OGT / Fold change vs veh, OGT / RFU, BRD1 / Fold change vs veh, BRD1 / RFU, MARS / Fold change vs veh, MARS / RFU, ZNF655 / Fold change vs veh, ZNF655 / RFU, FAHD1 / Fold change vs veh, FAHD1 / RFU, BDP1 / Fold change vs veh, BDP1 / RFU, LRRCC1 / Fold change vs veh, LRRCC1 / RFU, ARID1A / Fold change vs veh, ARID1A / RFU, ZNF146 / Fold change vs veh, ZNF146 / RFU, ZNF330 / Fold change vs veh, ZNF330 / RFU, GPN3 / Fold change vs veh, GPN3 / RFU, C9orf123 / Fold change vs veh, C9orf123 / RFU, N4BP2L2 / Fold change vs veh, N4BP2L2 / RFU, ARFIP1 / Fold change vs veh, ARFIP1 / RFU, FAM179B / Fold change vs veh, FAM179B / RFU, BCL10 / Fold change vs veh, BCL10 / RFU, UHRF1BP1L / Fold change vs veh, UHRF1BP1L / RFU, BET1 / Fold change vs veh, BET1 / RFU, CNOT2 / Fold change vs veh, CNOT2 / RFU, ZNF268 / Fold change vs veh, ZNF268 / Fold change vs veh, ZNF507 / RFU, DGCR2 / Fold change vs veh, DGCR2 / RFU, WDSUB1 / Fold change vs veh, WDSUB1 / Fold change vs veh, HSP90B1 /// MIR3652 / RFU, ADSS / Fold change vs veh, ADSS / RFU, GK / Fold change vs veh, GK / RFU, ZNF148 / Fold change vs veh, ZNF148 / RFU, TAF9 / Fold change vs veh, TAF9 / RFU, SLC1A5 / Fold change vs veh, SLC1A5 / RFU, SLMO2 / Fold change vs veh, SLMO2 / RFU, ABCC4 / Fold change vs veh, ABCC4 / RFU, LOC101060439 /// RAP1B / Fold change vs veh, LOC101060439 /// RAP1B / RFU, RFX7 / Fold change vs veh, RFX7 / RFU, GTPBP10 / Fold change vs veh, GTPBP10 / RFU, CNEP1R1 / Fold change vs veh, CNEP1R1 / RFU, BIVM-ERCC5 /// ERCC5 / Fold change vs veh, BIVM-ERCC5 /// ERCC5 / RFU, ILF3 / Fold change vs veh, ILF3 / RFU 11762660_at / Fold change /veh 11762660_at / RFU VCAN (11757783_s_at) / Fold change /veh VCAN (11757783_s_at) / RFU DDX43 (11728927_at) / Fold change /veh DDX43 (11728927_at) / RFU KRT8 (11758188_x_at) / Fold change /veh KRT8 (11758188_x_at) / RFU NKD1 (11759106_at) / Fold change /veh NKD1 (11759106_at) / RFU SRD5A1 (11742802_a_at) / Fold change /veh SRD5A1 (11742802_a_at) / RFU TPSAB1 /// TPSB2 (11721975_s_at) / Fold change /veh TPSAB1 /// TPSB2 (11721975_s_at) / RFU GSTM3 (11746129_a_at) / Fold change /veh GSTM3 (11746129_a_at) / RFU IL23R (11737362_x_at) / Fold change /veh IL23R (11737362_x_at) / RFU TMEM51 (11727254_a_at) / Fold change /veh TMEM51 (11727254_a_at) / RFU PIWIL2 (11732686_x_at) / Fold change /veh PIWIL2 (11732686_x_at) / RFU ORM1 (11744905_x_at) / Fold change /veh ORM1 (11744905_x_at) / RFU CCDC152 (11743942_at) / Fold change /veh CCDC152 (11743942_at) / RFU ECM1 (11717891_a_at) / Fold change /veh ECM1 (11717891_a_at) / RFU IL23R (11748794_a_at) / Fold change /veh IL23R (11748794_a_at) / RFU TNFAIP8L3 (11732012_x_at) / Fold change /veh TNFAIP8L3 (11732012_x_at) / RFU MBOAT4 (11741988_at) / Fold change /veh MBOAT4 (11741988_at) / RFU 11764193_at / Fold change /veh 11764193_at / RFU TMEM53 (11763286_at) / Fold change /veh TMEM53 (11763286_at) / RFU MAGEB2 (11727129_at) / Fold change /veh MAGEB2 (11727129_at) / RFU TMEM200A (11744735_a_at) / Fold change /veh TMEM200A (11744735_a_at) / RFU CCDC152 (11751479_a_at) / Fold change /veh CCDC152 (11751479_a_at) / RFU FAM211A (11726209_a_at) / Fold change /veh FAM211A (11726209_a_at) / RFU RGS16 (11746705_a_at) / Fold change /veh RGS16 (11746705_a_at) / RFU VCAN (11755009_s_at) / Fold change /veh VCAN (11755009_s_at) / RFU RHOB (11743442_s_at) / Fold change /veh RHOB (11743442_s_at) / RFU RGS16 (11720943_a_at) / Fold change /veh RGS16 (11720943_a_at) / RFU RGS16 (11720944_at) / Fold change /veh RGS16 (11720944_at) / RFU, VPS4B / Fold change vs veh, VPS4B / RFU, CREB1 / Fold change vs veh, CREB1 / RFU, DNAJC13 / Fold change vs veh, DNAJC13 / RFU, GNAQ / Fold change vs veh, GNAQ / RFU, CDK5R1 / Fold change vs veh, CDK5R1 / RFU, ZRANB3 / Fold change vs veh, ZRANB3 / RFU, CUL4A / Fold change vs veh, CUL4A / RFU, CCNY / Fold change vs veh, CCNY / RFU, UFL1 / Fold change vs veh, UFL1 / RFU, COG3 / Fold change vs veh, COG3 / RFU, DIAPH2 / Fold change vs veh, DIAPH2 / RFU, SKA2 / Fold change vs veh, SKA2 / RFU, AFF3 / Fold change vs veh, AFF3 / RFU, LMF1 / Fold change vs veh, LMF1 / RFU, IPO11 / Fold change vs veh, IPO11 / RFU, DFFB / Fold change vs veh, DFFB / RFU, FOXP1 / Fold change vs veh, FOXP1 / RFU, CARD8 / Fold change vs veh, CARD8 / RFU, STRN3 / Fold change vs veh, STRN3 / RFU, ADK / Fold change vs veh, ADK / RFU, RASSF2 / Fold change vs veh, RASSF2 / RFU, WIPF1 / Fold change vs veh, WIPF1 / RFU, LARP1B / Fold change vs veh, LARP1B / RFU, RASA1 / Fold change vs veh, RASA1 / RFU, RB1 / Fold change vs veh, RB1 / RFU, PPFIA1 / Fold change vs veh, PPFIA1 / RFU, MAT2A / Fold change vs veh, MAT2A / RFU, CCT5 / Fold change vs veh, CCT5 / RFU, WDR92 / Fold change vs veh, WDR92 / RFU, CUX1 / Fold change vs veh, CUX1 / RFU, TTC7A / Fold change vs veh, TTC7A / RFU, TMEM135 / Fold change vs veh, TMEM135 / RFU, DEPTOR / Fold change vs veh, DEPTOR / RFU, CPM / Fold change vs veh, CPM / RFU, DNAJB6 / Fold change vs veh, DNAJB6 / RFU, CACNA2D3 / Fold change vs veh, CACNA2D3 / RFU, DTX4 / Fold change vs veh, DTX4 / RFU, TFCP2 / Fold change vs veh, TFCP2 / RFU, GMCL1 /// GMCL1P1 / Fold change vs veh, GMCL1 /// GMCL1P1 / RFU, AEBP2 / Fold change vs veh, AEBP2 / RFU, SNHG1 /// SNORD22 /// SNORD25 /// SNORD26 /// SNORD27 /// SNORD28 /// SNORD29 /// SNORD31 / Fold change vs veh, SNHG1 /// SNORD22 /// SNORD25 /// SNORD26 /// SNORD27 /// SNORD28 /// SNORD29 /// SNORD31 / Fold change (Aza/veh), C12orf56 (ProbeSet 11735607_a_at) / Fold change (ACY-1035/veh), C12orf56 (ProbeSet 11735607_a_at) / Fold change (Aza/veh), FGFR1OP (ProbeSet 11751329_s_at) / Fold change (ACY-1035/veh), FGFR1OP (ProbeSet 11751329_s_at) / Fold change (Aza/veh), VPS36 (ProbeSet 11739960_a_at) / Fold change (ACY-1035/veh), VPS36 (ProbeSet 11739960_a_at) / RFU SYPL1 (11715823_x_at) / Fold change /veh SYPL1 (11715823_x_at) / RFU IGFBP7 (11715501_s_at) / Fold change /veh IGFBP7 (11715501_s_at) / RFU REEP3 (11722064_at) / Fold change /veh REEP3 (11722064_at) / RFU IGLL1 (11728026_x_at) / Fold change /veh IGLL1 (11728026_x_at): dose or concentration left out as unconfirmed
Details: ProbeSet 11760938_a_at; LIST D

For `Nc1ccc(-c2cccs2)cc1NC(=O)c1ccc2c(c1)cc(C1CC1)n2CCN1CCOCC1` [ACY-1035], the “Fold change vs veh, MAT2A” value was 0.84.
